From publication PMC12647759 (Scientific Reports, 2025)

Tests used:
human PLCε = target: T1, human PLCε (Homo sapiens, UniProt Q9P212); assay: In vitro PLC assay using fluorogenic substrate Compound 1 (HTS), PLCε; assay type: biochemical; conditions: for IC50: purified full-length PLCε, fluorogenic substrate Compound 1, read-out: IC50, inhibition of PLCε (hydrolysis of Compound 1)
T1 construct: expressing the full-length polypeptides of human PLCε, PLCβ4, PLCδ1 and PLCγ1 as FLAG fusions; made in house; host or cells: Expi293F cells
Procedure: For measuring inhibition by compounds for HTS, the reactions were conducted at RIKEN Center for Sustainable Resource Science (CSRS) as described above except that 5 µl of compound solution and 5 µl of purified PLCe (120 ng) were added to each well. […] For determination of the IC50 values for ZPT and Zn^2+, the EDTA concentration was reduced to one-tenth to avoid its zinc-chelating effect. For assay of the other PLC classes, the reactions were performed similarly except that PLCβ4 (5 ng), PLCδ1 (0.1 ng) or PLCγ1 (0.3 ng) was used instead of PLCε.

human PLCγ1 = target: T2, human PLCγ1 (Homo sapiens, UniProt P19174); assay: In vitro PLC assay using fluorogenic substrate Compound 1, PLCγ1; assay type: biochemical; conditions: for IC50: purified PLCγ1, fluorogenic substrate Compound 1, read-out: IC50, inhibition of PLCγ1 (hydrolysis of Compound 1)
T2 construct: expressing the full-length polypeptides of human PLCε, PLCβ4, PLCδ1 and PLCγ1 as FLAG fusions; made in house; host or cells: Expi293F cells
T2 sequence (P19174 1-1290): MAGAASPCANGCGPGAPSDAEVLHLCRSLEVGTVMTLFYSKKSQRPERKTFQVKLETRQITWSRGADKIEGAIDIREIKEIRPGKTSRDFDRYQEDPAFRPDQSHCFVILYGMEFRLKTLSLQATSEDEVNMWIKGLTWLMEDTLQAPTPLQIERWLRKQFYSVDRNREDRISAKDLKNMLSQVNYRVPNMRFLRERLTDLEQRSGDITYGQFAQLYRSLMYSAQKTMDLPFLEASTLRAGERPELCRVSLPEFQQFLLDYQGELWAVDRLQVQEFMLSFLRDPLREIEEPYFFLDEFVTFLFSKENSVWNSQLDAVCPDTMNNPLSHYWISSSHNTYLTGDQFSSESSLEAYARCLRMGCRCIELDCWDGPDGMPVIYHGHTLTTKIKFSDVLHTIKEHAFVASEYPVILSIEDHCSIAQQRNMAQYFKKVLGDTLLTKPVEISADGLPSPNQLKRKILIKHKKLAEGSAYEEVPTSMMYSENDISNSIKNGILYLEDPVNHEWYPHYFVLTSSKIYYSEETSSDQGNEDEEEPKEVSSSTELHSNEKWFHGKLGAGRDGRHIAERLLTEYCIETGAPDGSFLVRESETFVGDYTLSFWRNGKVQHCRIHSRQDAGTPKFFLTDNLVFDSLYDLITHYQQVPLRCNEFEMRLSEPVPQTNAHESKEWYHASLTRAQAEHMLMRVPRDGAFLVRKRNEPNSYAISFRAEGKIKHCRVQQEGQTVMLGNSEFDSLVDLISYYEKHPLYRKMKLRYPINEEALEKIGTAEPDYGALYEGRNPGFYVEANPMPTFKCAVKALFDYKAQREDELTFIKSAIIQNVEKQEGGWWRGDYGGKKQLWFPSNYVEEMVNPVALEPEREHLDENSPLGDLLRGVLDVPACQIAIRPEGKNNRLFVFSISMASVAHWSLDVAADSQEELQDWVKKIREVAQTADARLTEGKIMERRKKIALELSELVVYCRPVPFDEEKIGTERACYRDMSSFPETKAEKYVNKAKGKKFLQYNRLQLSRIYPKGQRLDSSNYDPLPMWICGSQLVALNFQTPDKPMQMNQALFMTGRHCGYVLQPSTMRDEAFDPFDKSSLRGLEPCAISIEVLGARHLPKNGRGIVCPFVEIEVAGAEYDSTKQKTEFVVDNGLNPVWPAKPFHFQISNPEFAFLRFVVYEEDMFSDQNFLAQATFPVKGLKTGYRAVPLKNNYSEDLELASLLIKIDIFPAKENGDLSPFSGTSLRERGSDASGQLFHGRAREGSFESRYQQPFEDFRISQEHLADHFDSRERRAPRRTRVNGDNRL
Procedure: Ten µl of 2 × substrate solutions (50 mM HEPES pH7.2, 200 mM NaCl, 0.2 mM CaCl2, 0.4 mM DTT, 0.4 µM EDTA, 0.02% gelatin, 0.2% sodium cholate and 60 µM Compound 1) were added to each well of a 384-well plate (CONING #3573) containing 10 µl of purified PLCε (120 ng) and incubated with shaking at 30 °C for 3 h. After terminating the reaction by the addition of 2 µl of 5 mM EDTA, the fluorescence emission was measured at 520 nm with the excitation at 485 nm by a microplate reader (POLARstar Omega-25). For measuring inhibition by compounds for HTS, the reactions were conducted at RIKEN Center for Sustainable Resource Science (CSRS) as described above except that 5 µl of compound solution and 5 µl of purified PLCe (120 ng) were added to each well. Solution dispensing and fluorescence detection were conducted by using an automated dispenser (EDR-384, Biotec) and a hybrid multi-mode microplate reader (Synergy H4, Biotec), respectively. For determination of the IC50 values for ZPT and Zn^2+, the EDTA concentration was reduced to one-tenth to avoid its zinc-chelating effect. For assay of the other PLC classes, the reactions were performed similarly except that PLCβ4 (5 ng), PLCδ1 (0.1 ng) or PLCγ1 (0.3 ng) was used instead of PLCε.

T1 sequence (Q9P212 whole entry, the tested form may be a part): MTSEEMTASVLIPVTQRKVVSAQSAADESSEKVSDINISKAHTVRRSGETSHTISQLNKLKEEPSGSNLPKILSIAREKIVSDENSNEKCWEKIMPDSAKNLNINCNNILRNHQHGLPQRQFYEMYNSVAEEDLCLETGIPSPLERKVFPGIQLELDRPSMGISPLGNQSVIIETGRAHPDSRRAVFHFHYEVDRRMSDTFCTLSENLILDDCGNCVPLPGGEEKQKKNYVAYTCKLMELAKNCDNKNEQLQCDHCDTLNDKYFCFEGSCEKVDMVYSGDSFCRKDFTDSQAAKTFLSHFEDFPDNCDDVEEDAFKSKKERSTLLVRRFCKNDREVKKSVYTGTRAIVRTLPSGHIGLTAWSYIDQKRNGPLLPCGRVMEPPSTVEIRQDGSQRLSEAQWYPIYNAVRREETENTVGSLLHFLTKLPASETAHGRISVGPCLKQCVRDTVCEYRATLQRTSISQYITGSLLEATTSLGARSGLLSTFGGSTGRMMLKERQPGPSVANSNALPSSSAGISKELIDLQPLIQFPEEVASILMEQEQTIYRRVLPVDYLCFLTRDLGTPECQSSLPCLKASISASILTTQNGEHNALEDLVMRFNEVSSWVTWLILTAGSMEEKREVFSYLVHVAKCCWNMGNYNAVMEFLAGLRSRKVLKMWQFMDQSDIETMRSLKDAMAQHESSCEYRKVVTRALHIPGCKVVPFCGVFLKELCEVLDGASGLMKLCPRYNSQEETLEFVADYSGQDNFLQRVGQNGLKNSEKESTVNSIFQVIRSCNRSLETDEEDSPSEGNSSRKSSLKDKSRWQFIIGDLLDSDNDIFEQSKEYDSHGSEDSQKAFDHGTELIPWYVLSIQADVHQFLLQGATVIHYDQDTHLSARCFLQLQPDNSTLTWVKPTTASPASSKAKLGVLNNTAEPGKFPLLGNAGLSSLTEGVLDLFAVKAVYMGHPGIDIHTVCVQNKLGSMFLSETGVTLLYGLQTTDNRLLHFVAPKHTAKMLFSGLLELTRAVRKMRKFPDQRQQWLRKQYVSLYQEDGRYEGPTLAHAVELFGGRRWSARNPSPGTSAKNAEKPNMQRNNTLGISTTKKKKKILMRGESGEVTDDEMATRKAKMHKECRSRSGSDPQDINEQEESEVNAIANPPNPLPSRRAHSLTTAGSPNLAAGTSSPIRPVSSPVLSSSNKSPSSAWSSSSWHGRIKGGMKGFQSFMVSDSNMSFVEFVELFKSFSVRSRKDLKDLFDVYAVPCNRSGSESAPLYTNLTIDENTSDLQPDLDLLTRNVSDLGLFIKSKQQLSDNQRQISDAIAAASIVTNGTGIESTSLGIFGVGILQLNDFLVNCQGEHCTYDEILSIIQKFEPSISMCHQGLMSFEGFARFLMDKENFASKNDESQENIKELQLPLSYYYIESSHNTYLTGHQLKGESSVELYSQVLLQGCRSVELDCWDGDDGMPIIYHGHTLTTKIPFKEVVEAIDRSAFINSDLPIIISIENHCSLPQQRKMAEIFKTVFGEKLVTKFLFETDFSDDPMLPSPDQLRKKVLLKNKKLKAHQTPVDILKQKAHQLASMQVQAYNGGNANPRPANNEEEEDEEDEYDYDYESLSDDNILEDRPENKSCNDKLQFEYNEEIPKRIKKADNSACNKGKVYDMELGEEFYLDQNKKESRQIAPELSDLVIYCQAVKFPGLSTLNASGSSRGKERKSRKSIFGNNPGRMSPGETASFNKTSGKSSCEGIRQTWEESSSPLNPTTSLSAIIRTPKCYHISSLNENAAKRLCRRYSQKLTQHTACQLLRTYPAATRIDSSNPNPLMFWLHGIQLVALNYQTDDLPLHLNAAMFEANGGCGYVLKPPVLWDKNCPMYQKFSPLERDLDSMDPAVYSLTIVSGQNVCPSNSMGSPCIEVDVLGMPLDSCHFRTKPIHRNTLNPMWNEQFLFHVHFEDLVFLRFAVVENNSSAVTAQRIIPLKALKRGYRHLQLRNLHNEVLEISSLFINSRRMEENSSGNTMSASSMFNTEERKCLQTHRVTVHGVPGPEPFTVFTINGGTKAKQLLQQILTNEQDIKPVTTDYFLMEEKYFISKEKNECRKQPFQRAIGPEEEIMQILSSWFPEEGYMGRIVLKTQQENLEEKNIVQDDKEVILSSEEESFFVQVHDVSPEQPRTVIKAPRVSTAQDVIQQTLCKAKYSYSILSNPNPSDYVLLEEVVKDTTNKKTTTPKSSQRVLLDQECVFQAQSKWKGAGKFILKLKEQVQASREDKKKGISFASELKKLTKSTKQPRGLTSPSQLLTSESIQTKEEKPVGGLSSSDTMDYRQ

Compound | IC50 (human PLCε) | IC50 (human PLCγ1) | PLCε inhibitory activity of ZnSO4 on addition of excess sodium pyrithione (human PLCε; 5 µM ZnSO4, varying concentrations of sodium pyrithione) | inhibitory activity toward PLCγ (human PLCγ1; Compound 1 as substrate, varying concentrations)
C[n+]1cc2c3c(ccc2c2ccc4cc5c(cc4c21)OCO5)OCO3 [Sanguinarine, sanguinarine] | 1.9 µM | 1.6 µM |  | 
O=S(=O)([O-])[O-].[Zn+2] [ZnSO4] | 1.2 µM |  | compromised the inhibitory activity of ZnSO4 in a dose-dependent manner | without exhibiting any noticeable inhibitory activities
COc1ccc2c(c[n+](C)c3c4cc5c(cc4ccc23)OCO5)c1OC [chelerythrine] | 1.3 µM | 1.8 µM |  | 
CCCCCCOc1ccc2c(c1)Oc1cc(OP(=O)(O)O[C@H]3[C@H](O)[C@@H](O)[C@H](OP(=O)(O)O)[C@@H](O)[C@H]3O)ccc1C21OC(=O)c2ccccc21 (stereo partly drawn) [compound 1] | 3.1 µM | 8.7 µM |  | 
